This is an account of results in PMC9227013, “Synthesis, Anticancer Potential and Comprehensive Toxicity Studies of Novel Brominated Derivatives of Bacterial Biopigment Prodigiosin from Serratia marcescens ATCC 27117” (Molecules, 2022).

Values after ≈ are worked out from the molar mass of the structure shown. Where two headings read alike, the source gives them in different places.

One series concerns C. elegans. To be noted: PG obtained from S. marcescens; cited from earlier work.
For series [1], the system named is 60-cell-line panel of the National Cancer Institute (NCI). To be noted: NCI 60-cell-line panel; cited from earlier work.
A further series deals with HCT116 colon cancer. The arrangement: method as in PMID 24247721. To be noted: HCT116, 72 h treatment; cited from earlier work.
The next series has as its system melanoma cell line A375. The arrangement: method as in PMID 16736886. To be noted: cited from earlier work.
For series [2], the system named is A549, A375, MDA-MB-231, and HCT116 cancer cell lines. Description: MTT assay, whole cell line panel. The format is cell-based. To be noted: 48 h. The protocol:
(§1) Selected cell lines MRC-5 (lung fibroblasts), A549 (lung cancer), A375 (melanoma, skin cancer), MDA-MB-231 (breast cancer), and HCT116 (colon cancer) were obtained from ATCC, Manassas, US. Antiproliferative activities of PG and its Br derivatives were measured using the standard colorimetric MTT [3-(4,5-dimethylthiazol-2-yl)-2,5-diphenyltetrazolium bromide] assay. Briefly, cells were plated in a 96-well flat-bottom plate (Sarstedt, Nümbrecht, Germany) at a concentration of 1 × 10^4 cells per well, grown in a humidified atmosphere of 95% air and 5% CO2 at 37 °C, and maintained as monolayer cultures in RPMI 1640 medium supplemented with 10% fetal bovine serum (FBS), 100 U/mL penicillin, and 100 μg/mL streptomycin (all media components from Gibco™ by Thermo Fischer Scientific CE). Each tested compound was added to the cells at a concentration of 0.05–100.00 μg/mL, and the treatment lasted for 48 h. The MTT assay was performed two times in four replicates, and the results were presented as a percentage of the DMSO-treated control that was arbitrarily set to 100%. Plates were read using the Tecan Infinite 200 Pro multiplate reader (Tecan Group Ltd., Männendorf, Switzerland).

The next series deals with Breast cancer MDA-MB-231. To be noted: cited from earlier work.
The test system of series [3] is HFF (human foreskin fibroblasts) cells. The arrangement: method as in PMID 24247721. To be noted: cited from earlier work.
A further series concerns Meloidogyne javanica. To be noted: cited from earlier work.
For a further series, the system named is Heterodera schachtii J2. To be noted: cited from earlier work.
Series [4] relates to juvenile Meloidogyne incognita J2. Also noted: method as in doi:10.3390/agronomy12010041. To be noted: cited from earlier work.
The subject of series [5] is C. elegans first stage juveniles. To be noted: cited from earlier work.
Series [6] concerns juveniles of Radopholus similis. To be noted: cited from earlier work.
The test system of another series is A549. To be noted: cited from earlier work.
The test system of series [7] is Caenorhabditis elegans AU37. Description: Roundworm (C. elegans) survival assay. The format is in vivo. To be noted: for Survival rate: 48 h. Here is the method: Nematode roundworms (Caenorhabditis elegans AU37) were obtained from the Caenorhabditis Genetics Center (CGC), University of Minnesota, Minneapolis, Minnesota, US. C. elegans AU37 (glp-4; sek-1) was propagated under standard conditions, synchronized by hypochlorite bleaching, and cultured on nematode growth medium using E. coli OP50 as a food source, as described previously. The C. elegans survival assay was carried out following the standard procedure with some modifications. Briefly, synchronized worms (L4 stage) were suspended in a medium containing 95% M9 buffer (3.0 g of KH2PO4, 6.0 g of Na2HPO4, 5.0 g of NaCl, and 1 mL of 1 M MgSO4∙7H2O in 1 L of water), 5% LB broth, and 10 μg/mL of cholesterol (Sigma-Aldrich, Munich, Germany). The experiment was carried out in 96-well flat-bottomed microtiter plates (Sarstedt, Nümbrecht, Germany) in the final volume of 100 μL per well. 25 μL of this suspension of nematodes (25–35 nematodes) were transferred to the wells of a 96-well microtiter plate, where 50 μL of the medium was previously added. Next, 25 μL of the solvent control (1% DMSO) or 25 μL of the concentrated tested compound solution was added to the test wells. Final concentrations of the compounds were 50.00, 25.00, 12.50, 6.25, 3.13, and 1.57 µg/mL. Subsequently, the plates were incubated at 25 °C for 2 days. The fraction of dead worms was determined after 48 h by counting the number of dead worms and the total number of worms in each well, using a Carl Zeiss™ Stemi 508 Stereomicroscope (Zeiss Group, Jena, Germany) at 40× magnification. The compounds were tested three times in each assay and each assay was repeated two times (n = 6). As a negative control experiment, nematodes were exposed to the medium containing 1% DMSO.

For series [8], the system named is MDA-MB-231 (breast cancer). Description: MTT antiproliferative assay on MDA-MB-231 cells. The series is classed as cell-based. To be noted: for IC50: Homo sapiens. Here is the method:
as §1

For the compound `CCCCCC1=CC(=Cc2[nH]c(-c3ccc[nH]3)cc2OC)N=C1C` [PG, 4-Methoxy-5-[(5-methyl-4-pentyl-2H-pyrrol-2-ylidene)methyl]-1H,1'H-2,2'-bipyrrole], the toxicological assessment result in the series with C. elegans was “no significant toxic activity”. Also, the “average LC50” value in series [1] is on record as 0.68 µg/mL. Also, the IC50 in the series on HCT116 colon cancer was 0.04 µg/mL (≈ 0.124 µM); in series [2] (read-out: IC50 values range over the tested cancer cell lines), 0.62 to 1.3 µg/mL (≈ 1.92 to 4.02 µM); in series [3] (72 h of treatment) it was 0.15 µg/mL (≈ 0.464 µM); in [4] it was 200 µg/mL (≈ 618 µM); in series [8] (MDA-MB-231, 48 h), 0.62 ± 0.01 µg/mL (≈ 1.92 µM). Besides, the “sensitivity of A375 to PG” value in the series on melanoma cell line A375 is on record as 0.70 µg/mL. In the series with Breast cancer MDA-MB-231, the “sensitivity of MDA-MB-231 to PG (lower end of literature range)” value was 0.02 µg/mL. Further, in the series with Breast cancer MDA-MB-231, the “sensitivity of MDA-MB-231 to PG (upper end of literature range)” value is 0.68 µg/mL. Moreover, the growth inhibition in series [3] (0.36 µg/mL PG) was 76.16%. Further, the LC50 in the series on Meloidogyne javanica is on record as 79 µg/mL (≈ 244 µM); in series [6] it was 83 µg/mL (≈ 257 µM). For the same compound, the Effectiveness in the series with Heterodera schachtii J2 is reported as 4.30 µg/mL. In series [5], the EC50 is on record as 0.04 µg/mL (≈ 0.124 µM). The “anticancer activity against A549 (lower end of literature range)” value in the series with A549 is 0.03 µg/mL. Besides, the “anticancer activity against A549 (upper end of literature range)” value with A549 is listed as 3.23 µg/mL. For the same compound, the Survival rate in series [7] (1.57 µg/mL), in series [7] (3.13 µg/mL), in [7] (6.25 µg/mL), in series [7] (12.50 µg/mL), in [7] (25.00 µg/mL) and in series [7] (50.00 µg/mL) was 100 ± 0.00% in each case. For the same compound, the “selectivity between healthy and cancer cell lines” value in series [8] (MRC-5 vs breast cancer cells (MDA-MB-231), 48 h) was determined as 1.9.

In the case of `CCCCCC1=C(Br)/C(=C/c2[nH]c(-c3[nH]ccc3Br)cc2OC)N=C1C` [PG-Br2], in [2] (human), the “lower cytotoxicity in comparison to PG” value was 8-27 fold. Also, the Survival rate in series [7] (1.57 µg/mL), in series [7] (3.13 µg/mL), in series [7] (6.25 µg/mL), in series [7] (12.50 µg/mL), in [7] (25.00 µg/mL) and in series [7] (50.00 µg/mL) was 100 ± 0.00% each time. For the same compound, the motility of nematodes entry in [7] (all tested concentrations) is “significantly impaired”. For the same compound, the IC50 in series [8] (MDA-MB-231, 48 h treatment, read-out: IC50) was found to be 17 ± 0.05 µg/mL (≈ 35.3 µM).
